For 29 molecules, IC50 results are on record in US20050282818A1, “Ubiquitin ligase inhibitors” (Rigel Pharmaceuticals, Inc., priority 2004, published 2005).

The target in one experiment is APC11/APC2 (Homo sapiens, UniProt Q9NYG5+Q9UJX6). Kind of experiment: APC-11/APC-2 ligase assay (APC auto ubiquitination). It is filed as biochemical. The following applies: APC assay. The method in brief:
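His-tagged APC was captured on nickel plates with human E1 (5 ng/well), UbcH5c (20 ng/well), APC (100 ng/well) and Flag-ubiquitin (100 ng/well) in a Tris pH 7.6 reaction buffer containing 2.5 mM ATP, for 1 hour at room temperature. Read-out was anti-Flag/HRP chemiluminescence. IC50 was set against a DMSO control, typically from 6 or 8 concentrations.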

Experiment [1] has as its system ICAM-1 expression in A549 cells. Kind of experiment: ICAM assay (IL-1 induced ICAM-1/CD54 expression in A549 cells). It is filed as cell-based, human. To be noted: Homo sapiens, A549, ICAM assay. The method in brief: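 Luminescent immunostaining (anti-CD54, then anti-mouse IgG, 1 h) quantifies ICAM-1 on A549 cells induced 4 h at 37° C by IL-1 (4 μl of 25 ng/ml added). Compound is added 1 h before the cytokine to cells plated overnight at 10,000 per well.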

The target of the next experiment is T1, TRAF6/Uev1A/Ubc13 (Homo sapiens, UniProt Q9Y4K3).
T1 sequence (Q9Y4K3 1-522): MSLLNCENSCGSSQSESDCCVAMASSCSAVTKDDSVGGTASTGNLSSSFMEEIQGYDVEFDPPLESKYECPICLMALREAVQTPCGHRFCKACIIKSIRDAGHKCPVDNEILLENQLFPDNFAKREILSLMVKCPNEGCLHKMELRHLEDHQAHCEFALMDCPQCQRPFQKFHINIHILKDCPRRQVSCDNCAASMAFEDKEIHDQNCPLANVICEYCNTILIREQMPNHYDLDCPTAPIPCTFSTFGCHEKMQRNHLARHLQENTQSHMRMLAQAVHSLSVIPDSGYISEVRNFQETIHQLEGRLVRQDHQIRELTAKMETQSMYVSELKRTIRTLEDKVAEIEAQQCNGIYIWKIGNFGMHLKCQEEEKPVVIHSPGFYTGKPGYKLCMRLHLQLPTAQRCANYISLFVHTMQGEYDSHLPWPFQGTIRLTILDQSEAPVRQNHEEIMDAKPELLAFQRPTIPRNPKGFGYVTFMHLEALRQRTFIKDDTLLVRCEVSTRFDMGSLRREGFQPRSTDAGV
Kind of experiment: TRAF6/Uev1A/Ubc13 plate-based ubiquitin ligase assay. In kind it is biochemical. The method in brief: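 Ligase activity was read as luminescence from anti-Flag/HRP detection of Flag-ubiquitin bound to casein-blocked Ni-plates alongside His-ubiquitin after a 1 h room-temperature reaction. Buffer: 62.5 mM Tris pH 7.5, 6.25 mM MgCl2, 1.0 mM DTT, 2 μM ATP; E1, Uev1a/Ubc13 and TRAF6 added last to start. IC50s derived across compound concentrations.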

Sequence of APC11/APC2 (Q9NYG5 whole entry): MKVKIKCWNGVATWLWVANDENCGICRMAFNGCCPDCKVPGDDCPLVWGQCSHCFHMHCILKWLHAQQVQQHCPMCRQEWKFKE
Sequence of APC11/APC2 (Q9UJX6 whole entry): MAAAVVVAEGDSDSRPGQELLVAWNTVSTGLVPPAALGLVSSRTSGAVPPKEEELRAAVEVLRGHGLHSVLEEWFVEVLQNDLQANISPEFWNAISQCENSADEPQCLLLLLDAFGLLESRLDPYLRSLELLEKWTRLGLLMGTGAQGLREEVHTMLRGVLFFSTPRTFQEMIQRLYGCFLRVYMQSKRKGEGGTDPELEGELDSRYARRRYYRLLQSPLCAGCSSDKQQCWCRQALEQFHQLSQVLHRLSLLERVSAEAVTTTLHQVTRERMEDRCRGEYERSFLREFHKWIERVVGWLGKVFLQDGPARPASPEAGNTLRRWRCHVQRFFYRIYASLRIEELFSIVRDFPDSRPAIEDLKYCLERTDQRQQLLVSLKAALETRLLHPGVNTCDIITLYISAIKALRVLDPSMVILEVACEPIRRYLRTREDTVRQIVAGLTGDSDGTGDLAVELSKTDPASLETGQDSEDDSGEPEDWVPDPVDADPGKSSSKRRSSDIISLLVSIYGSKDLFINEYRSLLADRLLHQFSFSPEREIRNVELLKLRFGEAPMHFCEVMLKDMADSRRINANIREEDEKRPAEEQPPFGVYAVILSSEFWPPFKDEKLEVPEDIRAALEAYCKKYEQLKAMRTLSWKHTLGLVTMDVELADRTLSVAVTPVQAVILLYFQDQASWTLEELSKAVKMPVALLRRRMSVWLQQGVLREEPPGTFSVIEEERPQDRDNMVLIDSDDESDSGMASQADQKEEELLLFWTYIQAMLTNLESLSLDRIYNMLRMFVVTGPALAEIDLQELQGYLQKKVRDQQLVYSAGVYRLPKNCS

Consider `Cc1cccc(C(C)C)c1NS(=O)(=O)c1ccc(Cl)c2nonc12` [compound 352, 7-chloro-N-(2-isopropyl-6-methylphenyl)-2,1,3-benzoxadiazole-4-sulfonamide], for which the IC50 was at least 20 µM against APC11/APC2, 1 to 20 µM in experiment [1] and at least 20 µM at TRAF6/Uev1A/Ubc13.
For the molecule `Cc1cc(C)cc(-c2ccc(N)c3nonc23)c1` [compound 426, 7-(3,5-dimethylphenyl)-2,1,3-benzoxadiazol-4-amine], the IC50 (against APC11/APC2; in experiment [1]; at TRAF6/Uev1A/Ubc13) was at least 20 µM in each case.
Consider `O=[N+]([O-])c1ccc(-c2cccc3ccccc23)c2nonc12` [compound 469, 4-(naphthalen-1-yl)-7-nitro-2,1,3-benzoxadiazole], for which the IC50 on APC11/APC2 was 1 to 20 µM; in experiment [1] it was 1 to 20 µM; on TRAF6/Uev1A/Ubc13 it was at least 20 µM.
Regarding `O=S(=O)(NCC1CCCCC1)c1ccc(Cl)c2nonc12` [compound 447, 7-chloro-N-(cyclohexylmethyl)-2,1,3-benzoxadiazole-4-sulfonamide], the IC50 was at least 20 µM against APC11/APC2, 1 to 20 µM in experiment [1] and at least 20 µM on TRAF6/Uev1A/Ubc13.
For `O=[N+]([O-])c1ccc(-c2cc(F)cc(F)c2)c2nonc12` [compound 308, 4-[(3,5-Difluoro)phenyl]-7-nitro-2,1,3-benzoxadiazole], the IC50 on APC11/APC2 is 1 to 20 µM; in experiment [1] it was 1 to 20 µM; against TRAF6/Uev1A/Ubc13, at least 20 µM.
Turning to `O=[N+]([O-])c1c(N2CCCCC2)cc(-c2ccc(C(F)(F)F)cc2)c2nonc12` [compound 431, 7-(4-[trifluoromethyl]phenyl)-4-nitro-5-(piperidin-1-yl)-2,1,3-benzoxadiazole], the IC50 (against APC11/APC2; in experiment [1]; against TRAF6/Uev1A/Ubc13) was at least 20 µM each time.
For `Fc1cc2nsnc2cc1-c1ccccc1` [compound 458, 5-fluoro-6-phenyl-2,1,3-benzthiadiazole], the IC50 (against APC11/APC2; in experiment [1]; at TRAF6/Uev1A/Ubc13) was at least 20 µM throughout.
With `COc1ccccc1Nc1ccc(S(=O)(=O)Nc2ccccc2F)c2nonc12` [compound 404, N-(2-fluorophenyl)-7-([2-methoxyphenyl]amino)-2,1,3-benzoxadiazole-4-sulfonamide], the IC50 (against APC11/APC2; in experiment [1]; against TRAF6/Uev1A/Ubc13) was at least 20 µM in each case.
As to `COc1cccc(-c2cc(N3CCCCC3)c([N+](=O)[O-])c3nonc23)c1` [compound 434, 7-(3-methoxyphenyl)-4-nitro-5-(piperidin-1-yl)-2,1,3-benzoxadiazole], the IC50 (on APC11/APC2; in experiment [1]; on TRAF6/Uev1A/Ubc13) was at least 20 µM in each case.
Regarding `Nc1ccc(Nc2ccc3[nH]ncc3c2)c2nonc12` [compound 398, N-(1H-indazol-5-yl)-2,1,3-benzoxadiazole-4,7-diamine], the results for the IC50 (against APC11/APC2; in experiment [1]; on TRAF6/Uev1A/Ubc13) were at least 20 µM, 1 to 20 µM and at least 20 µM, respectively.
With `O=S(=O)(Nc1cccc(F)c1F)c1ccc(Sc2ccc(O)cc2)c2nonc12` [compound 402, N-(2,3-difluorophenyl)-7-([4-hydroxyphenyl]thio)-2,1,3-benzoxadiazole-4-sulfonamide], the IC50 at APC11/APC2 was 1 to 20 µM; in experiment [1], at least 20 µM; against TRAF6/Uev1A/Ubc13, at least 20 µM.
`Cc1cccc(C)c1NS(=O)(=O)c1ccc(Cl)c2nonc12` [compound 353, 7-chloro-N-(2,6-dimethylphenyl)-2,1,3-benzoxadiazole-4-sulfonamide]: the values for the IC50 (at APC11/APC2; in experiment [1]; against TRAF6/Uev1A/Ubc13) were at least 20 µM, 1 to 20 µM and at least 20 µM, respectively.
As for `FC(F)(F)c1cccc(-c2cc(-c3cccc(C(F)(F)F)c3)c3nonc3c2)c1` [compound 418, 4,6-bis(3-[trifluoromethyl]phenyl)-2,1,3-benzoxadiazole], the IC50 (against APC11/APC2; in experiment [1]; against TRAF6/Uev1A/Ubc13) was at least 20 µM throughout.
Consider `O=S(=O)(Nc1ccncn1)c1ccc(Cl)c2nonc12` [compound 374, 7-chloro-N-1,3-pyrimidin-4-yl-2,1,3-benzoxadiazole-4-sulfonamide], for which the IC50 (on APC11/APC2; in experiment [1]; on TRAF6/Uev1A/Ubc13) was at least 20 µM each time.
In the case of `Clc1cc(Sc2cccc3cccnc23)cc2nonc12` [compound 336, 8-[(4-chloro-2,1,3-benzoxadiazol-6-yl)thio]quinoline], the IC50 (at APC11/APC2; in experiment [1]; against TRAF6/Uev1A/Ubc13) was at least 20 µM each time.
As for `CC(C)(C)c1ccc(-c2cc(N3CCCCC3)c([N+](=O)[O-])c3nonc23)cc1` [compound 433, 7-(4-t-butylphenyl)-4-nitro-5-(piperidin-1-yl)-2,1,3-benzoxadiazole], the IC50 (against APC11/APC2; in experiment [1]; against TRAF6/Uev1A/Ubc13) was at least 20 µM each time.
As to `COc1cccc(NS(=O)(=O)c2ccc(Cl)c3nonc23)c1OC` [compound 410, 7-chloro-N-(2,3-dimethoxyphenyl)-2,1,3-benzoxadiazole-4-sulfonamide], the figures for the IC50 (on APC11/APC2; in experiment [1]; on TRAF6/Uev1A/Ubc13) were at least 20 µM, 1 to 20 µM and at least 20 µM, respectively.
Regarding `Cc1ccc(-c2cc([N+](=O)[O-])cc3nonc23)cc1` [compound 476, 6-nitro-4-p-tolyl-2,1,3-benzoxadiazole], the IC50 (against APC11/APC2; in experiment [1]; against TRAF6/Uev1A/Ubc13) was at least 20 µM in each case.
Take `O=[N+]([O-])c1c(N2CCCCC2)cc(-c2cc(F)cc(F)c2)c2nonc12` [compound 428, 7-(3,5-difluorophenyl)-4-nitro-5-(piperidin-1-yl)-2,1,3-benzoxadiazole]: the IC50 (at APC11/APC2; in experiment [1]; against TRAF6/Uev1A/Ubc13) was at least 20 µM throughout.
With `O=[N+]([O-])c1cc(-c2cccc(C(F)(F)F)c2)c2nonc2c1` [compound 480, 4-(3-[trifluoromethyl]phenyl)-6-nitro-2,1,3-benzoxadiazole], the IC50 against APC11/APC2 is 1 to 20 µM; in experiment [1], 1 to 20 µM; against TRAF6/Uev1A/Ubc13 it was at least 20 µM.
In the case of `O=[N+]([O-])c1ccc(C2=CCCCC2)c2nonc12` [compound 451, 4-cyclohexenyl-7-nitro-2,1,3-benzoxadiazole], the IC50 against APC11/APC2 was at least 20 µM; in experiment [1], 1 to 20 µM; at TRAF6/Uev1A/Ubc13, at least 20 µM.
As to `O=[N+]([O-])c1c(N2CCCCC2)cc(-c2cccc(C(F)(F)F)c2)c2nonc12` [compound 429, 7-(3-[trifluoromethyl]phenyl)-4-nitro-5-(piperidin-1-yl)-2,1,3-benzoxadiazole], the IC50 (at APC11/APC2; in experiment [1]; against TRAF6/Uev1A/Ubc13) was at least 20 µM each time.
On to `Nc1ccc(N2CCOCC2)c2nonc12` [compound 375, 7-(morpholin-4-yl)-2,1,3-benzoxadiazol-4-amine], for which the IC50 (against APC11/APC2; in experiment [1]; at TRAF6/Uev1A/Ubc13) was at least 20 µM throughout.
For `O=[N+]([O-])c1cc(-c2ccc(C(F)(F)F)cc2C(F)(F)F)c2nonc2c1` [compound 477, 4-(2,4-bis[trifluoromethyl]phenyl)-6-nitro-2,1,3-benzoxadiazole], the IC50 against APC11/APC2 is 1 to 20 µM; in experiment [1], 1 to 20 µM; against TRAF6/Uev1A/Ubc13, at least 20 µM.
Consider `O=[N+]([O-])c1cc(-c2cccc3cccnc23)c2nonc2c1` [compound 483, 6-nitro-4-(quinolin-8-yl)-2,1,3-benzoxadiazole], for which the IC50 (against APC11/APC2; in experiment [1]; at TRAF6/Uev1A/Ubc13) was at least 20 µM each time.
Turning to `Cc1cccc(-c2ccc([N+](=O)[O-])c3nonc23)c1C` [compound 470, 4-(2,3-dimethylphenyl)-7-nitro-2,1,3-benzoxadiazole], the IC50 against APC11/APC2 was 1 to 20 µM; in experiment [1], 1 to 20 µM; at TRAF6/Uev1A/Ubc13, at least 20 µM.
For the molecule `O=[N+]([O-])c1cccc(-c2ccc([N+](=O)[O-])c3nonc23)c1` [compound 444, 4-nitro-7-(3-nitrophenyl)-2,1,3-benzoxadiazole], the half-maximal inhibitory concentration (IC50) (against APC11/APC2; in experiment [1]; against TRAF6/Uev1A/Ubc13) was 1 to 20 µM throughout.
Consider `Cc1cc(C)cc(-c2cc3nsnc3cc2F)c1` [compound 461, 5-(3,5-dimethylphenyl)-6-fluoro-2,1,3-benzthiadiazole], for which the IC50 (against APC11/APC2; in experiment [1]; against TRAF6/Uev1A/Ubc13) was at least 20 µM each time.
For `O=[N+]([O-])c1cc(-c2cc(F)cc(F)c2)c2nonc2c1` [compound 479, 4-(3,5-difluorophenyl)-6-nitro-2,1,3-benzoxadiazole], the IC50 (at APC11/APC2; in experiment [1]; against TRAF6/Uev1A/Ubc13) was at least 20 µM in each case.
